Assay results: US11345745B2, “Peptide-hinge-free flexible antibody-like molecule” (BIOMOLECULAR HOLDINGS LLC, priority 2011, dated 2022)

System: anti-Aβ mAb (6E10)
Assay: Surface plasmon resonance (SPR) binding to immobilized anti-Aβ monoclonal antibody 6E10
Conditions: 6E10 immobilized on the surface of the SPR chip
Procedure: SPR tests were carried out using a Biacore T100 instrument (Biacore AB, Uppsala, Sweden). A ligand, biotin-labeled 6E10 monoclonal antibody (Covance, Princeton, N.J.), was immobilized at a concentration of 10 mg/ml in PBS onto a CAP sensor chip, Series S, using a Biotin CAPture Kit (GE Healthcare, Piscataway, N.J.). The sensor chip was loaded with a streptavidin capture reagent and regenerated according to the manufacturer's instruction, including an additional regeneration step using 0.25 MNaOH in 30% acetonitrile. Binding of Aβ symmetroadhesins and Aβ peptides was carried out at 25° C. in 10 mM Hepes buffer, pH 7,4, 150 mM NaCl, 3 mM EDTA, and 0.005 vol % Tween-20. Data was evaluated using Biacore T100 Evaluation Software, version 2.0.3.
Accordingly, the present inventors characterized the binding of the Aβ symmetroadhesins of the present inventors to one of these antibodies (6E10) using surface plasmon resonance (SPR). The present inventors compared the binding of Aβ peptides containing the [sequence] sequence (SEQ ID No. 2) which were expected to bind to 6E10 in a one-handed manner.

Fc6: recombinant human IgG1 Fc protein beginning at 226CPPC core hinge, N-terminal cysteine, expressed in CHO cells
binding to immobilized 6E10 (observed or not): No binding
